Measurements from article PMC3914206.

Tests used:
Format in all cases: binding
Design in all cases: KINOMEscan: ABL1(F317L)-phosphorylated / KINOMEscan: ABL1(H396P)-nonphosphorylated / KINOMEscan: ABL1(H396P)-phosphorylated / KINOMEscan: ABL1(M351T)-phosphorylated / KINOMEscan: ABL1(T315I)-phosphorylated / KINOMEscan: ABL1-nonphosphorylated / KINOMEscan: ABL1-phosphorylated / KINOMEscan: ACVR2A / KINOMEscan: ACVR2B / KINOMEscan: ADCK3 / KINOMEscan: ADCK4 / KINOMEscan: AKT1 / KINOMEscan: AKT3 / KINOMEscan: ALK / KINOMEscan: ARK5 / KINOMEscan: AURKA / KINOMEscan: AURKC / KINOMEscan: BIKE / KINOMEscan: BMPR1A / KINOMEscan: BMPR1B / KINOMEscan: BMX / KINOMEscan: BRK / KINOMEscan: BRSK1 / KINOMEscan: BRSK2 / KINOMEscan: CAMK1 / KINOMEscan: CAMK1D / KINOMEscan: CAMK1G / KINOMEscan: CAMK2A / KINOMEscan: CAMK2B / KINOMEscan: AAK1 / KINOMEscan: CAMK2D / KINOMEscan: CAMK2G / KINOMEscan: ABL1(F317I)-nonphosphorylated / KINOMEscan: ABL1(F317I)-phosphorylated / KINOMEscan: ABL1(F317L)-nonphosphorylated: unit: % Ctrl
[1] = target: T1, panel of 442 kinases (Homo sapiens, UniProt P08069); details: Compound Concentration 10 µM
T1 construct: purchased KINOMEscan
Excerpt: (§1) We assessed the selectivity of members of this scaffold using the KINOMEscan methodology across a near comprehensive panel of 442 kinases [[18,27]].

[2] = target: T2, panel of 442 kinases (Homo sapiens, UniProt Q13470); details: kinase TNK1; compound concentration 10 µM
T2 construct: purchased KINOMEscan
T2 sequence (Q13470 1-666): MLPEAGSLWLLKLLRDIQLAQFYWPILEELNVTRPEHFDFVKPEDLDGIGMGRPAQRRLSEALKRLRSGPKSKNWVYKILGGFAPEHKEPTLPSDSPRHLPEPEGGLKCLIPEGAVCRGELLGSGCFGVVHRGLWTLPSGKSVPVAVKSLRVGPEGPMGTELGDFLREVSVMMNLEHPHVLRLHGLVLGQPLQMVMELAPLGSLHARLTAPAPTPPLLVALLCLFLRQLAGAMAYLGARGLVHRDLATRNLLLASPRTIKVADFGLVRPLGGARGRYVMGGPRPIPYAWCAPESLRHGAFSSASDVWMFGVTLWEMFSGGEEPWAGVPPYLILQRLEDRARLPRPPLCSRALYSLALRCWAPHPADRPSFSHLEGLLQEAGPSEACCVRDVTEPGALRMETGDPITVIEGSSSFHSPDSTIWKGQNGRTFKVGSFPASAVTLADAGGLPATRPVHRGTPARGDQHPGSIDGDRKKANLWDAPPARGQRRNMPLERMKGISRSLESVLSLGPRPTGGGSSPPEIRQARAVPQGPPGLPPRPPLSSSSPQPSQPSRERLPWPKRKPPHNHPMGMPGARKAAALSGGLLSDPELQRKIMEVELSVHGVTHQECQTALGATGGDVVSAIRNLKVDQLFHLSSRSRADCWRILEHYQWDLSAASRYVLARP
Excerpt: as §1

[3] = target: T3, panel of 442 kinases (Homo sapiens, UniProt P00519, F317I); details: Compound Concentration 10 µM
T3 construct: purchased KINOMEscan
Excerpt: as §1

T1 sequence (P08069 31-1367): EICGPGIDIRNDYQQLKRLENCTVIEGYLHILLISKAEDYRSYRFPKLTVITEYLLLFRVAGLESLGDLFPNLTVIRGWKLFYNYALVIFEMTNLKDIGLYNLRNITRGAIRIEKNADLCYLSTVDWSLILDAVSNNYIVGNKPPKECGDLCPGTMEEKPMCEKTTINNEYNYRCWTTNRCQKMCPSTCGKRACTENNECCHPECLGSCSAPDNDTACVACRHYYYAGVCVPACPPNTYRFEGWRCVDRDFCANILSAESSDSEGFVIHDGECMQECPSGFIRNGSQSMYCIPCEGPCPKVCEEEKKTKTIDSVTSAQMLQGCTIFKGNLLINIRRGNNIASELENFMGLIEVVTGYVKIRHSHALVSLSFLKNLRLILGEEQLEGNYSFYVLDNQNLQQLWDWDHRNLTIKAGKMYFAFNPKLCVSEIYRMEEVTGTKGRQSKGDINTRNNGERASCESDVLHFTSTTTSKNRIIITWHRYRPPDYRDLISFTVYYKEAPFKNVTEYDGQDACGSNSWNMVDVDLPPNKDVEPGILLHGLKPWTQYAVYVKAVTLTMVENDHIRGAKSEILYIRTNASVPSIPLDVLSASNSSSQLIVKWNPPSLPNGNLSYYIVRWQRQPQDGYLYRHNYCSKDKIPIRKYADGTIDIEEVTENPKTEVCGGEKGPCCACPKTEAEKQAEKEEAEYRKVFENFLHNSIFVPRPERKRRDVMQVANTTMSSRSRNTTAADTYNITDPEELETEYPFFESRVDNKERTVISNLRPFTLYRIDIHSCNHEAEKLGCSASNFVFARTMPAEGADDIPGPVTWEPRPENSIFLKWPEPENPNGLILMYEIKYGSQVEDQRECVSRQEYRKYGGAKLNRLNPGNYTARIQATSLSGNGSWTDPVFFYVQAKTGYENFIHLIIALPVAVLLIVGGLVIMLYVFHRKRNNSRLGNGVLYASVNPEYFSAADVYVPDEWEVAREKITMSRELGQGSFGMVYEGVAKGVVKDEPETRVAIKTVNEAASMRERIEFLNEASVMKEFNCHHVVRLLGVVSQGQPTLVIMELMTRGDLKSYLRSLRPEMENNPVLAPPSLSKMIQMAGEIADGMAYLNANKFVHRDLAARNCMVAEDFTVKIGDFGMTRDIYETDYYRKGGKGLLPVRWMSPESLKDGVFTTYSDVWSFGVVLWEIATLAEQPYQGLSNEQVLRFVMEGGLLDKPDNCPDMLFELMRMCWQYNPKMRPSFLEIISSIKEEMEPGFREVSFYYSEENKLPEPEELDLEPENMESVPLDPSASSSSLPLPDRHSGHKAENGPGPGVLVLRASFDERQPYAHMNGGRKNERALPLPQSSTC
T3 sequence (P00519 whole entry F317I): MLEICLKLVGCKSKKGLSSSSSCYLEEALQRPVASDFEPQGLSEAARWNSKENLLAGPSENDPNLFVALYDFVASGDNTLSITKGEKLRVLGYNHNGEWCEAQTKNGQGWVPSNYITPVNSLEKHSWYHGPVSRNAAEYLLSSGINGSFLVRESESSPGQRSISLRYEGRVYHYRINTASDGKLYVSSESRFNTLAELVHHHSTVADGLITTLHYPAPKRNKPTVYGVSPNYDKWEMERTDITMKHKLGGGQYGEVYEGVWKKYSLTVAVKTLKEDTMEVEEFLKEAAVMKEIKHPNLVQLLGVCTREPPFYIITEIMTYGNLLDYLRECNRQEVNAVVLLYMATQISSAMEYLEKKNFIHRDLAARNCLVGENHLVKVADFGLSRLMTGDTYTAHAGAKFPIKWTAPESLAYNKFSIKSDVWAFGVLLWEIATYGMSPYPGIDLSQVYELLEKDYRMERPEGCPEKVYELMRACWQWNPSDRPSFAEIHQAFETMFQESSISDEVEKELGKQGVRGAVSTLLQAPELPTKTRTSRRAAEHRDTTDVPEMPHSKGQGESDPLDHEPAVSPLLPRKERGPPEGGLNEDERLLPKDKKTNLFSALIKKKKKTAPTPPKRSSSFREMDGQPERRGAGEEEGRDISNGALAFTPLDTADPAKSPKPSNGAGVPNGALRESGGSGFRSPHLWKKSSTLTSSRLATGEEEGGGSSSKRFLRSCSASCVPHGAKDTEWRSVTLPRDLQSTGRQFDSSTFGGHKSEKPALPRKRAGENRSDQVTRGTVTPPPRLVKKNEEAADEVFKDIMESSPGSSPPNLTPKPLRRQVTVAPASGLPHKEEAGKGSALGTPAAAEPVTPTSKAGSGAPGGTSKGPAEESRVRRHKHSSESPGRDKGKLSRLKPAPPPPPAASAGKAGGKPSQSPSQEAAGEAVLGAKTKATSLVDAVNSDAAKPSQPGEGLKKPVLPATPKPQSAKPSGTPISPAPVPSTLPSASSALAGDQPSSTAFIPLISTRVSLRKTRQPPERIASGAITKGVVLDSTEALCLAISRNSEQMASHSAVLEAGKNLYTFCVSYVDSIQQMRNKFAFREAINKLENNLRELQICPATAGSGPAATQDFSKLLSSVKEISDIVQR

| SMILES | KINOMEscan: IGF1R [1] | % Ctrl, TNK1 [2] | KINOMEscan: ABL1(F317I)-nonphosphorylated [3] | KINOMEscan: ABL1(F317I)-phosphorylated [3] |
| --- | --- | --- | --- | --- |
| CCOc1cc(C(=O)N2CCC(N3CCN(C)CC3)CC2)ccc1Nc1ncc2c(n1)N(C1CCCC1)c1ccccc1C(=O)N2C [Compound 26] | 100 | 53 % Ctrl | 51 | 64 |
| COc1cc(C(=O)N2CCC(N3CCN(C)CC3)CC2)ccc1Nc1ncc2c(n1)N(C1CCCC1)c1ccccc1C(=O)N2C [Compound 25, 11-cyclopentyl-2-((2-methoxy-4-(4-(4-methylpiperazin-1-yl)piperidine-1-carbonyl)phenyl)amino)-5-methyl-5H-benzo[e]pyrimido[5,4-b][1,4]diazepin-6(11H)-one] | 89 | 7.8 % Ctrl | 26 | 29 |
| COc1cc(C(=O)N2CCC(N3CCN(C)CC3)CC2)ccc1Nc1ncc2c(n1)N1CCc3cccc(c31)C(=O)N2C [Compound 24] |  | 5 % Ctrl | 17 | 24 |
| COc1cc(C(=O)N2CCC(N3CCN(C)CC3)CC2)ccc1Nc1ncc2c(n1)N(C)c1ccccc1C(=O)N2C [15 (LRRK2-IN-1)] | 96 | 2.8 % Ctrl | 15 | 17 |
